The target of assay [1] is T1, Phosphodiesterase 4 (Homo sapiens, UniProt P27815+Q08499+Q07343+Q08493). In words: In vitro binding activity towards catalytic site of phosphodiesterase 4. Type of assay: protein assay.
Assay [2] concerns the target T1, Phosphodiesterase 4. In words: Inhibition of Rolipram binding to phosphodiesterase 4 at 1 uM. The assay is classed as protein assay.
Assay [3] concerns the target T1, Phosphodiesterase 4. In words: Ratio of binding activity at catalytic site to Rolipram binding site of PDE4. The assay is classed as protein assay.
Assay [4] has as its target T1, Phosphodiesterase 4. In words: Inhibition of Rolipram binding to phosphodiesterase 4 at 100 uM. The assay is classed as protein assay.
For assay [5], the target named is T1, Phosphodiesterase 4. In words: Binding activity towards Rolipram binding site of phosphodiesterase 4. The assay is classed as protein assay.
In assay [6] the target is T1, Phosphodiesterase 4. In words: Inhibition of Rolipram binding to phosphodiesterase 4. Type of assay: protein assay. Particulars: concentration not given here.
Assay [7] has as its target T1, Phosphodiesterase 4. Description: Binding activity towards Rolipram binding site of phosphodiesterase 4 at concentration 10 uM. The assay is classed as protein assay.
The target of assay [8] is T1, Phosphodiesterase 4. In words: Inhibition of phosphodiesterase 4 at 20 uM. Type of assay: protein assay.
Assay [9] addresses T2, Phosphodiesterase 1 (Homo sapiens, UniProt P54750+Q01064+Q14123). In words: Inhibition of phosphodiesterase 1 at 20 uM. The assay is classed as protein assay.
Assay [10] concerns the target Phosphodiesterase 3 (Homo sapiens) (UniProt Q14432+Q13370). Description: Inhibition of phosphodiesterase 3 at 200 uM. The assay is classed as protein assay.
In assay [11] the target is cGMP-dependent 3',5'-cyclic phosphodiesterase (Homo sapiens) (UniProt O00408). Particulars: 200 uM.
Chain of cGMP-dependent 3',5'-cyclic phosphodiesterase (Homo sapiens) (O00408 whole entry): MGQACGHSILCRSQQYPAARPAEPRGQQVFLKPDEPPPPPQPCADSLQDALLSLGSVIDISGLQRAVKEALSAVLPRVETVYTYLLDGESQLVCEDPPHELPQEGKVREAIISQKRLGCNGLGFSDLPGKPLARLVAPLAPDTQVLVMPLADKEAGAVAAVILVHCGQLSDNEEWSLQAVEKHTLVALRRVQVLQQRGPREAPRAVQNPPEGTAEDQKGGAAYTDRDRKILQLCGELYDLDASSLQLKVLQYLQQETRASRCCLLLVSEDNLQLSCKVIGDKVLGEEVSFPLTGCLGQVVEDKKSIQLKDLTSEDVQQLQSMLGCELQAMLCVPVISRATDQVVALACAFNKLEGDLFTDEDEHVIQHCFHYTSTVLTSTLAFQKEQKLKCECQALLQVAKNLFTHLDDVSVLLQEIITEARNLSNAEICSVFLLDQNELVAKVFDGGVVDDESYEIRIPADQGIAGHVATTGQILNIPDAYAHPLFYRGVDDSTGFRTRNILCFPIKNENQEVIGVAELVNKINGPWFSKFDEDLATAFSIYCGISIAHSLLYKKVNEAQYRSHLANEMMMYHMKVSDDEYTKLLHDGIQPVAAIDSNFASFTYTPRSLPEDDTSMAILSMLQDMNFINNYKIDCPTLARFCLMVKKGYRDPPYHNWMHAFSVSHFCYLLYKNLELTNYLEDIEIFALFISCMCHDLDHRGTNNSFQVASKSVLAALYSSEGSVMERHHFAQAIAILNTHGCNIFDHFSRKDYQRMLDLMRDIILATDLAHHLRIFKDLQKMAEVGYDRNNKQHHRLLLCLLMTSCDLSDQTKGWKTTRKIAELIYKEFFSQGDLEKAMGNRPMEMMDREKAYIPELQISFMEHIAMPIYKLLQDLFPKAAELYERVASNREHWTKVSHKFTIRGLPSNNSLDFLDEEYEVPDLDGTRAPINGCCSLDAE
Assay [12] deals with T1, Phosphodiesterase 4. Description: Inhibition of phosphodiesterase 4 at 200 uM. Type of assay: protein assay.
In assay [13] the target is T1, Phosphodiesterase 4. Description: Inhibition of phosphodiesterase 4. Type of assay: protein assay.
Assay [14] has as its target T1, Phosphodiesterase 4. In words: Inhibition of Rolipram binding to phosphodiesterase 4 at 20 uM. The assay is classed as protein assay.
Assay [15] concerns the target cGMP-dependent 3',5'-cyclic phosphodiesterase (Homo sapiens) (UniProt O00408). Description: Inhibition of phosphodiesterase 2 at 200 uM.
Assay [16] concerns the target T2, Phosphodiesterase 1. In words: Inhibition of phosphodiesterase 1 at 200 uM. The assay is classed as protein assay.
The target of assay [17] is cGMP-specific 3',5'-cyclic phosphodiesterase (Homo sapiens) (UniProt O76074). In words: Inhibition of phosphodiesterase 5 at 200 uM.

The values below come from ChEMBL document CHEMBL1130590, “Aryl sulfonamides as selective PDE4 inhibitors” (Bioorg Med Chem Lett, 1998).

Where only a bound is given, the exact number is not on record here.

For orientation: IC50 means the concentration that inhibits the measured activity by half. Low readings indicate higher potency, high ones lower potency. One may read the inhibition as the percentage by which the read-out fell short of the control. Read a high inhibition as a response far below the control.

In [1], `COc1ccc(S(=O)(=O)N(Cc2cccnc2)S(C)(=O)=O)cc1OCCCCCc1ccccc1` came in with an IC50 of 1.5 µM. For the same molecule, the inhibition in [2] was 18%. For the same molecule, in [3], the Ratio is less than 1.
Molecule `COC(=O)CN(Cc1ccco1)S(=O)(=O)c1ccc(OC)c(OC)c1` displayed an IC50 in [1] of 10 µM. The molecule further gave an inhibition in assay [4] of 23%. The Ratio in [3] is less than 1.
As for `COc1ccc(S(=O)(=O)N(CC(C)=O)Cc2ccco2)cc1OC`, the figures for the IC50 in assay [5] and in assay [1] were 35 µM and 24 µM, respectively. Further, the Ratio in assay [3] came out at 0.69.
The molecule `COc1ccc(S(=O)(=O)N(Cc2ccccc2)Cc2cccnc2)cc1OC` yielded an IC50 in [1] of 5 µM. This molecule also had an inhibition in assay [6] of 8%. Besides, the Ratio in assay [3] is less than 1.
Regarding `COc1ccc(S(=O)(=O)N(Cc2cccnc2)S(C)(=O)=O)cc1OC1CCCC1`, the IC50 in assay [5] came out at 4.5 µM; in [1], 2 µM. In addition, the Ratio in assay [3] is 0.44.
Take `COc1ccc(S(=O)(=O)N(Cc2cccnc2)C2CCc3ccccc32)cc1OC` (stereo unspecified): the IC50 in [1] is 9 µM. The same molecule had an inhibition in [7] of 20%. The Ratio in assay [3] is less than 0.9.
Regarding `COc1ccc(S(=O)(=O)N(CCC#N)Cc2ccco2)cc1OC1CCCC1`, the IC50 in [5] worked out at 10 µM. For the same molecule, the inhibition in assay [8] is 32%. Moreover, the Ratio in assay [3] was greater than 1.
Consider `COc1ccc(C2CNC(=O)C2)cc1OC1CCCC1` (stereo unspecified) [ROLIPRAM], for which the IC50 in assay [9] is greater than 200 µM. Besides, the inhibition in assay [10] is 27%; in assay [11], 28%.
On to `COc1ccc(S(=O)(=O)NCc2cccnc2)cc1OC`, for which the inhibition in [4] was determined as 41%; in assay [12], 39%.
On to `COc1ccc2c(c1)C(NS(=O)(=O)c1ccc(OC)c(OC)c1)CC2` (stereo unspecified), for which, in assay [1], the IC50 came out at 2.5 µM. The molecule also yielded an inhibition in assay [7] of 2%. Also, the Ratio in [3] is less than 0.25.
In turn, `COc1ccc(S(=O)(=O)N(CCCC#N)Cc2ccco2)cc1OC` showed an IC50 in assay [1] of 9 µM. The molecule also yielded an inhibition in assay [7] of 37%. In addition, in [3], the Ratio was less than 1.
`COc1ccc(S(=O)(=O)NC2CCCC2)cc1OC` yielded a half-maximal inhibitory concentration (IC50) in assay [1] of 100 µM. The molecule also came in with an inhibition in assay [4] of 19%. Also, the Ratio in assay [3] is less than 1.
Consider `COc1ccc(S(=O)(=O)N(CC#N)Cc2ccco2)cc1OC`, for which the inhibition stood at 36% in assay [7] and 30% in assay [8]. The Ratio in assay [3] is greater than 1.
Molecule `COc1ccc(S(=O)(=O)N2CCc3ccccc32)cc1OC` yielded an IC50 in assay [1] of 4.3 µM. In [7], this molecule gave an inhibition of 18%. The Ratio in [3] is less than 0.43.
Regarding `CCCN(Cc1ccco1)S(=O)(=O)c1ccc(OC)c(OC)c1`, the IC50 in assay [5] came out at 15 µM; in assay [1], 1.5 µM. Also, the Ratio in [3] was determined as 0.1.
Turning to `COc1ccc(S(=O)(=O)N(Cc2cccnc2)S(C)(=O)=O)cc1OC`, the values for the IC50 in assay [5] and in [1] were 50 µM and 6 µM, respectively. Besides, the Ratio in assay [3] amounted to 0.12.
In the case of `COc1ccc(S(=O)(=O)n2c(=O)cc(-c3ccccc3)c3ccccc32)cc1OC`, the IC50 in assay [13] came to 0.5 µM. The inhibition in [7] was determined as 14%.
The like results for `COc1ccc(S(=O)(=O)n2c(-c3ccccc3)cc3ncccc3c2=O)cc1OC` were, in that order, 1.5 µM and 20%.
The molecule `COc1ccc(S(=O)(=O)N(CCC#N)C2CCc3ccccc32)cc1OC` (stereo unspecified) displayed an IC50 in assay [1] of 4.1 µM. This molecule also had an inhibition in [7] of 26%. In [3], the Ratio was less than 0.4.
As to `COc1ccc(S(=O)(=O)N(Cc2ccccc2)Cc2ccccn2)cc1OC`, in assay [1], the IC50 was 7.8 µM. For the same molecule, in [7], the inhibition came out at 5%. Besides, the Ratio in assay [3] is less than 0.7.
For `COc1ccc(S(=O)(=O)n2ccc3ccccc3c2=O)cc1OC`, the 50% inhibitory concentration (IC50) in [14] turned out to be 4 µM; in assay [13] it was 0.5 µM.
Consider `COc1ccc(S(=O)(=O)N(CCC#N)CC2CCCO2)cc1OC` (stereo unspecified), for which the IC50 is 112 µM in [5] and 19 µM in [1]. Besides, the Ratio in assay [3] was 0.17.
Turning to `COc1ccc(S(=O)(=O)n2c(-c3ccccc3)cc3ccccc3c2=O)cc1OC`, the IC50 in assay [13] worked out at 0.6 µM. For the same molecule, in assay [7], the inhibition came to 31%.
Molecule `COc1ccc(S(=O)(=O)N(Cc2ccccn2)C2CCc3ccccc32)cc1OC` (stereo unspecified) showed an IC50 in [1] of 5.3 µM. This molecule showed an inhibition in assay [7] of 12%. Moreover, in assay [3], the Ratio was less than 0.5.
For `COc1ccc(S(=O)(=O)N(CCC#N)C2CCCc3ccccc32)cc1OC` (stereo unspecified) the same measures were 6.4 µM, 30% and less than 0.6.
Regarding `COc1ccc(S(=O)(=O)NCCC#N)cc1OC`, the IC50 in assay [5] came to 50 µM; in assay [13], 17.6 µM.
As for `COc1ccc(C(=O)N2CCCc3ccccc32)cc1OC`, the inhibition in [15] amounted to 21%; in assay [16], 14%; in assay [10], 31%; in [17], 12%; in assay [7], 15%. This molecule returned an IC50 in assay [1] of 20 µM. Further, the Ratio in [3] was less than 1.
Consider `COc1ccc(S(=O)(=O)NC2CCc3ccccc32)cc1OC` (stereo unspecified), for which the IC50 in assay [1] was 6 µM. This molecule also gave an inhibition in [7] of 12%. The Ratio in assay [3] is less than 0.6.
For `COc1ccc(S(=O)(=O)NC2CCc3cc(Cl)ccc32)cc1OC` (stereo unspecified) the same measures were 5.2 µM, 12% and less than 0.5.
Take `COc1ccc(S(=O)(=O)N(Cc2cccnc2)S(=O)(=O)CCNS(=O)(=O)c2ccccc2)cc1OC`: the IC50 in [5] was found to be 24 µM; in assay [1], 3 µM. In addition, the Ratio in assay [3] was determined as 0.13.
The like results for `CCCN(Cc1ccc(C(=O)NC)cc1)S(=O)(=O)c1ccc(OC)c(OC)c1` were, in that order, 4.3 µM, 1.9 µM and 0.44.
Molecule `COc1ccc(S(=O)(=O)N(CCC#N)Cc2ccco2)cc1OC` yielded an IC50 in [1] of 10 µM. The same molecule returned an inhibition in assay [7] of 37%. Moreover, in [3], the Ratio is less than 1.
On to `COc1ccc(C(=O)NC2CCc3ccccc32)cc1OC` (stereo unspecified), for which the inhibition was 37% in assay [15], 14% in [16], 53% in [10] and 24% in assay [17]. Also, the IC50 in [5] turned out to be 3 µM; in [1] it was 11 µM. The Ratio in [3] is 3.7.
